Results as given in article PMC7316490, “Dihydrofolate Reductase Is a Valid Target for Antifungal Development in the Human Pathogen Candida albicans” (mSphere, 2020).
Read-outs that look alike come from different tables or passages of the source.

How the values were obtained:
[1] = tested on: wild-type C. albicans strain (SC5314); assay: Antifungal susceptibility testing (dose-response growth, OD600); assay type: cell-based, Candida albicans; settings: for C. albicans growth inhibition (in words): YNB medium, pH 5 and pH 7; for MIC: Candida albicans, SC5314, YNB medium buffered to either pH 5 or 7
Experimental: A wild-type C. albicans strain (SC5314) was seeded at 1 × 10^4 cells/ml into YNB medium without folate or PABA with the indicated supplements and increasing concentrations of MTX. After 48 h of incubation at 30°C, growth was quantified as the OD600 value and expressed as a percentage of the value for the DMSO-treated control. The values presented here are the average of two replicates and are representative of two independent experiments.
Approximately 1 × 10^4 cells/ml of a wild-type C. albicans strain was seeded into a 96-well plate with increasing concentrations of MTX in YNB pH 5, YNB pH 7, and RPMI pH 7 media. After 48 h, the OD600 was measured and expressed as a percentage of the value for the DMSO-treated control. The results presented here are the averages of two replicates and are representative of two independent experiments.
Stock solutions of MTX were prepared at 10 mM in dimethyl sulfoxide (DMSO) and diluted as needed in the same solvent. […] The final concentration of DMSO was 0.5% for all treatments. Plates were then incubated at 30°C before growth was quantified after 24 and 48 h by measuring the OD600 using a Cytation 5 plate reader (Bio-Tek Instruments, Inc.). MIC50 values were identified visually using the CLSI antifungal susceptibility assay and then confirmed by quantifying growth by the OD600 value. The growth of each strain at each drug concentration was then expressed relative to that of the DMSO-alone control. The susceptibility to MTX at the highest concentration at each pH was compared to that of the other pH values using a two-tailed Student's t test.

[2] = biological target: T1, Candida albicans dihydrofolate reductase (Candida albicans, UniProt P22906); assay: biochemical; assay type: biochemical; settings: for inhibition of C. albicans DHFR (in words): dose-response experiments, purified enzyme
T1 construct: The optimized DFR1 ORF was then cloned into pET15b; 6xHis; host or cells: Escherichia coli
T1 sequence (P22906 1-192): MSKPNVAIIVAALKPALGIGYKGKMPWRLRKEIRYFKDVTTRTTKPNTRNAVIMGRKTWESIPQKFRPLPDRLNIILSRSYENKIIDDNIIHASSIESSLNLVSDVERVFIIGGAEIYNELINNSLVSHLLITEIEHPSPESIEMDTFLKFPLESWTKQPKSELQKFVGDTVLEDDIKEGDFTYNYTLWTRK
Description: Finally, we tested a panel of additional antifolates to examine the relationship between their antifungal potencies and capacities to inhibit C. albicans DHFR. The enzyme was purified using a 6×His tag ([45], [46]), and activity was detected by measuring the conversion of NADPH to NADP^+ at an optical density at 340 nm (OD340) ([34]).
The C. albicans DFR1 open reading frame (ORF) sequence was retrieved from the Candida Genome Database ([68]) and was codon optimized for expression in Escherichia coli. The optimized DFR1 ORF was then cloned into pET15b ([69]) to allow propagation and expression of C. albicans Dfr1p in E. coli. Cultures of E. coli transformed with pET15b-CaDfr1p (Biomatik) were grown overnight in LB plus ampicillin. The culture was diluted 1:100 into fresh medium and incubated at 35°C for 6 h; then Dfr1p expression was induced with isopropyl-β-D-thiogalactopyranoside (IPTG) at a final concentration of 0.5 mM for 16 h. Cells were collected by centrifugation and resuspended in binding buffer (6 g/liter Tris base, pH 7.5, 8.8 g/liter NaCl, 1 mM dithiothreitol [DTT], 0.68 g/liter imidazole, 5% glycerol, 1× protease inhibitor). Resuspended cells were lysed with 1 mg/ml chicken white lysozyme (Sigma) for 60 min at 4°C. Then, Triton X-100 and NaCl were added to 0.1% and 0.5 M, respectively. The lysate was then centrifuged, and the supernatant was collected. The supernatant was added to nickel resin beads (Sigma) and incubated at 4°C for 30 min with rotation. The buffer was removed, and the beads were washed twice with binding buffer. Then the beads were suspended in elution buffer (6 g/liter Tris base, pH 7.5, 8.8 g/liter NaCl, 1 mM DTT, 34 g/liter imidazole, 5% glycerol) and incubated at 4°C for 30 min. The elution was removed and then run on SDS-PAGE gels (Sigma) to confirm the presence of CaDfr1p. SDS-PAGE gels were run according to the manufacturer’s protocol.
The enzymatic activity of C. albicans Dfr1p was determined using a dihydrofolate reductase assay (Sigma). The manufacturer’s protocol was adapted to the fungal enzyme by scaling down the volume to 100-μl reaction mixtures with 88 μl of buffer, 6 μl of a 1 mM NADPH stock, 5 μl of a 1 mM DHF stock, and 1 μl of 3-mg/ml purified enzyme. The loss of NADPH was quantified as the decrease in absorption at the OD340 over a 30-min time frame. The IC50 was calculated by converting the change in the OD340 value per minute into the amount of THF produced per minute and then compared to the level in an untreated control.

[3] = tested on: disseminated Candida infections; settings: cited from earlier work; for fraction of patients nonresponsive to treatment: patients with disseminated Candida infections
PTET98-DFR1 strain [4] = assay: Passaging of doxycycline-repressible strain in fetal bovine serum; assay type: cell-based; settings: Candida albicans, read-out: growth inhibition
Experimental: FIG 2 Dfr1p is essential for Candida albicans growth in vitro. A dfr1Δ/PTETO98-DFR1 strain was sequentially passaged in YPD broth (A), YNB broth (B), or fetal bovine serum (C), each supplemented with 5 μg/ml doxycycline (DOX). Following inoculation at approximately 5 × 10^5 cells/ml, each culture was incubated at 30°C for 24 h, and growth was measured after 24 h as the OD600 value. Relative growth was then expressed as a percentage of the untreated control, i.e., without doxycycline. The values presented here are representative of two independent experiments.
A combination of dTMP, adenine, histidine, and methionine, each of which requires folate for its biosynthesis, is sufficient to partially restore S. cerevisiae growth following treatment with antifolates ([36]). However, these supplements were not sufficient to restore C. albicans growth in the presence of MTX (Fig. 3). […] Finally, we examined if C. albicans was able to scavenge sufficient folates or folate-dependent metabolites from blood serum to negate the need for de novo biosynthesis. The PTET98-DFR1 strain was passaged for 3 days in 100% fetal bovine serum (FBS) with or without doxycycline. In the first passage, doxycycline inhibited growth by ∼60%, with increasing growth inhibition seen in subsequent subcultures (Fig. 2C). […]

PTET98-DFR1 strain [5] = assay: Mouse model of disseminated candidiasis; assay type: in vivo, BALB/c mice
Experimental: Next, we determined if DFR1 expression is essential for C. albicans virulence in a mammalian host using a mouse model of disseminated candidiasis. Female BALB/c mice were split into two treatment groups: group 1 was treated with doxycycline in a gel food formulation from 72 h before infection and for the duration of the experiment; group 2 was mock treated using unsupplemented gel food. The mice were then infected with ∼5 × 10^5 yeast cells of the PTET98-DFR1 strain via the lateral tail vein, and their health was monitored for 12 days. […] All mice in the mock-treated group succumbed to the infection by day 7 (Fig. 5A), confirming the virulence of the PTET98-DFR1 strain under nonrepressing conditions. […] On day 12, surviving animals were euthanized, kidneys were extracted and homogenized, and levels of fungal colonization were determined as CFU counts. […] To determine if suppression of Dfr1p activity is sufficient to resolve an established infection, a second experiment was performed in which mice were infected with the PTET98-DFR1 strain, and doxycycline treatment was initiated 24-h postinfection. […] Furthermore, C. albicans is unable to scavenge sufficient sources of folate to survive within mammalian tissue, and de novo biosynthesis is required. Indeed, the antifungal efficacy achieved upon repressing Dfr1p expression appears to be similar to that attained upon suppression of Erg11p expression. Accordingly, DHFR and likely other FOL pathway enzymes can provide potentially efficacious targets for antifungal development.
FIG 5 Dfr1p is essential for Candida albicans virulence in a mouse model of disseminated candidiasis. Groups of BALB/c mice (n = 6) were inoculated with ∼5 × 10^5 CFU of either the dfr1Δ/PTET98-DFR1 strain or the erg11Δ/PTETO-ERG11 strain via the lateral tail vein injections. The Erg11p strain was included to compare the antifungal efficacy of targeting Dfr1p with a previously validated target. The mice were monitored three times daily for 12 days, and those showing signs of distress were humanely euthanized. Mice were treated with 2 mg/g doxycycline (DOX) or mock treated with vehicle alone provided in a gel food formulation from 72 h prior to infection and throughout the duration of the experiment. […].
All animal experiments were done according to protocols approved by the University of Tennessee Institutional Animal Care and Use Committee. Groups of 6- to 8-week-old female BALB/c mice (Charles River Laboratories) were randomly assigned to one of three treatment groups 3 days before infection. Group 1 (minus doxycycline) was provided 20 g of DietGel (clear H2O) per day, per cage of 4 mice, while group 2 (plus doxycycline) was provided the same diet supplemented with 2 mg/ml of doxycycline hyclate. Group 3 (posttreatment) mice were given the DietGel without doxycycline until 24 h after infection and were administered 10 mg/kg of doxycycline through oral gavage at […], 24, and 36 h postinfection. Treatment was maintained daily for the duration of the experiment (up to 12 days postinfection). Each C. albicans strain was grown overnight in YPD cultures at 30°C (200 rpm). Cells were washed twice in sterile endotoxin-free phosphate-buffered saline (PBS), and cell density was determined using a hemocytometer. […] Mice were monitored for 12 days, and those showing distress were euthanized. Survival data were plotted on a Kaplan-Meier curve and analyzed by a log rank (Mantel-Cox) test using GraphPad Prism, version 8.00. […]

[6] = doxycycline treatment initiated 24-h postinfection

## Nc1nc2[nH]cc(CCc3ccc(C(=O)N[C@@H](CCC(=O)O)C(=O)O)cc3)c2c(=O)[nH]1 [Pemetrexed, pemetrexed]
[1]
  C. albicans growth inhibition (in words): antifungal activity at pH 5 but not at pH 7
[2]
  IC50: 1000 nM
  inhibition of C. albicans DHFR (in words): inhibited C. albicans DHFR activity

## [H]/N=C(\N/C(=N/[H])Nc1ccc(Cl)cc1)NC(C)C [Proguanil, proguanil]
[1]
  MIC: > 25 µM
[2]
  inhibition of C. albicans DHFR (in words): lacked activity
[2]; purified C. albicans DHFR (6×His tag), read-out: IC50
  IC50: > 10000 nM

## CCc1nc(N)nc(N)c1-c1ccc(Cl)cc1 [Pyrimethamine, pyrimethamine]
[1]
  C. albicans growth inhibition (in words): failed to inhibit C. albicans growth at either pH
[2]
  IC50: 100 nM
  inhibition of C. albicans DHFR (in words): inhibited C. albicans DHFR activity

## COc1cc(Cc2cnc(N)nc2N)cc(OC)c1OC [Trimethoprim, trimethoprim]
[1]
  MIC: > 25 µM

## C[C@@H]1[C@H](O)[C@@H](C)/C=C/C=C/C=C/C=C/C=C/C=C/C=C/[C@H](O[C@@H]2O[C@H](C)[C@@H](O)[C@H](N)[C@@H]2O)C[C@@H]2O[C@](O)(C[C@@H](O)C[C@@H](O)[C@H](O)CC[C@@H](O)C[C@@H](O)CC(=O)O[C@H]1C)C[C@H](O)[C@H]2C(=O)O [amphotericin B]
[3]; patients with disseminated candidiasis
  favorable response rate: 62%

## C[C@H]1c2cccc(O)c2C(=O)C2=C(O)[C@]3(O)C(=O)C(C(N)=O)=C(O)[C@@H](N(C)C)[C@@H]3[C@@H](O)[C@@H]21 [doxycycline]
PTET98-DFR1 strain [4]
  inhibition at 5 µg/mL: ~60%
PTET98-DFR1 strain [5]; doxycycline from 72 h before infection
  kidney fungal colonization (CFU) on day 12: 5 of the 8 surviving mice had undetectable levels of fungal colonization
PTET98-DFR1 strain [5]; doxycycline in gel food from 72 h before infection, monitored 12 days
  survival: all doxycycline-treated mice survived for the duration of the experiment
PTET98-DFR1 strain [5]; [6]
  kidney fungal colonization at end of experiment: Half of these mice had undetectable levels of fungal colonization
  time to resolution of initial symptoms: ≤ 6 days
PTET98-DFR1 strain [5]; doxycycline treatment initiated 24-h postinfection, to day 12 postinfection
  survival: all mice survived the duration of the experiment

## OC(Cn1cncn1)(Cn1cncn1)c1ccc(F)cc1F [fluconazole]
[3]
  fraction of patients nonresponsive to treatment: approximately one-third

## C[C@@H](c1nc(-c2ccc(C#N)cc2)cs1)[C@](O)(Cn1cncn1)c1cc(F)ccc1F [isavuconazole]
[3]
  fraction of patients nonresponsive to treatment: approximately one-third

## C[C@@H](c1ncncc1F)[C@](O)(Cn1cncn1)c1ccc(F)cc1F [voriconazole]
[3]
  fraction of patients nonresponsive to treatment: approximately one-third
